Measurements as given in patent US6479435B1, “Diaryl ethers and processes for their preparation and herbicidal and desiccant compositions containing them” (ISK Americas Incorporated, priority 1997, dated 2002).

Legend:
Assay type in all cases: in vivo
[1] = system: field corn (Zea mays L., var. Dekalb 535, CORN); experiment: Post-emerge greenhouse test, crop damage rating; conditions: 14 days after application, scale 0-100
Procedure, shortened: (§1)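 Compounds in acetone with 0.25% v/v non-ionic surfactant were track-sprayed at 187 l/ha over plants at the 2-3 leaf stage, at 63 to 1000 g ai/ha. Pots were bottom-watered. Injury was scored visually 14 days later on a 0-100 scale, where 0 is no damage and 100 is complete plant death.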

[2] = system: upland rice (Oryza sp., var.Tebonnet, RICE); experiment: Post-emerge greenhouse test, crop damage rating; conditions: 14 days after application, scale 0-100
Procedure, shortened: as §1

[3] = system: common ragweed (Ambrosia artemisiifolia L., AMBEL); experiment: Post-emerge greenhouse herbicide test, phytotoxicity rating; conditions: 14 days after application, scale 0-100
Procedure, shortened: as §1

[4] = system: sicklepod (Cassia obtusifolia, CASOB); experiment: as above; conditions: 14 days after application, scale 0-100
Procedure, shortened: as §1

[5] = system: large crabgrass (Digitaria sanguinalis, DIGSA); experiment: as above; conditions: 14 days after application, scale 0-100
Procedure, shortened: as §1

[6] = system: redroot pigweed (Amaranthus retroflexus, AMARE); experiment: as above; conditions: 14 days after application, scale 0-100
Procedure, shortened: as §1

[7] = system: lambsquarters (Chenopodium album, CHEAL); experiment: as above; conditions: 14 days after application, scale 0-100
Procedure, shortened: as §1

[8] = system: Johnsongrass (Sorghum halepense, SORHA); experiment: as above; conditions: 14 days after application, scale 0-100
Procedure, shortened: as §1

[9] = system: green foxtail (Setaria viridis, SETVI); experiment: as above; conditions: 14 days after application, scale 0-100
Procedure, shortened: as §1

[10] = system: velvetleaf (Abutilon theophrasti, ABUTH); experiment: as above; conditions: 14 days after application, scale 0-100
Procedure, shortened: as §1

[11] = system: barnyardgrass (Echinochloa crusgalli, ECHCG); experiment: as above; conditions: 14 days after application, scale 0-100
Procedure, shortened: as §1

[12] = system: ivyleaf morningglory (Ipomoea hederacea, IPOHE); experiment: as above; conditions: 14 days after application, scale 0-100
Procedure, shortened: as §1

[13] = system: soybean (Glycine max L., var. Pella 86, SOY); experiment: Post-emerge greenhouse test, crop damage rating; set-up: key to crop damage rating SOY: 0-100 scale: 0 = no damage, 100 = complete death of all plants; conditions: 14 days after application, scale 0-100
Procedure, shortened: as §1

[14] = system: soybean (Glycine max L., var. Pella 86, SOY); experiment: Pre-emerge greenhouse test, crop damage rating; set-up: key to SOY crop damage rating: 0 = no damage, 100 = complete death of all plants; conditions: 14 days after application, rating scale 0-100
Procedure, shortened: (§2)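 Seeds sown in sandy loam mix one day before track-sprayer application of compounds in acetone at 125–1000 g ai/ha (187 l/ha), then surface-watered to incorporate and bottom-watered. Visual rating 14 days after application on a 0–100 scale (0 = no damage, 100 = all plants dead).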

[15] = system: field corn (Zea mays L., var. Dekalb 535, CORN); experiment: Pre-emerge greenhouse test, crop damage rating; conditions: 14 days after application, rating scale 0-100
Procedure, shortened: as §2

[16] = system: upland rice (Oryza sp., var.Tebonnet, RICE); experiment: Pre-emerge greenhouse test, crop damage rating; conditions: 14 days after application, rating scale 0-100
Procedure, shortened: as §2

[17] = system: sicklepod (Cassia obtusifolia, CASOB); experiment: Pre-emerge greenhouse herbicide test, phytotoxicity rating; conditions: 14 days after application, rating scale 0-100
Procedure, shortened: as §2

[18] = system: large crabgrass (Digitaria sanguinalis, DIGSA); experiment: as above; conditions: 14 days after application, rating scale 0-100
Procedure, shortened: as §2

[19] = system: redroot pigweed (Amaranthus retroflexus, AMARE); experiment: as above; conditions: 14 days after application, rating scale 0-100
Procedure, shortened: as §2

[20] = system: lambsquarters (Chenopodium album, CHEAL); experiment: as above; conditions: 14 days after application, rating scale 0-100
Procedure, shortened: as §2

[21] = system: Johnsongrass (Sorghum halepense, SORHA); experiment: as above; conditions: 14 days after application, rating scale 0-100
Procedure, shortened: as §2

[22] = system: common ragweed (Ambrosia artemisiifolia L., AMBEL); experiment: as above; conditions: 14 days after application, rating scale 0-100
Procedure, shortened: as §2

[23] = system: green foxtail (Setaria viridis, SETVI); experiment: as above; conditions: 14 days after application, rating scale 0-100
Procedure, shortened: as §2

[24] = system: velvetleaf (Abutilon theophrasti, ABUTH); experiment: as above; conditions: 14 days after application, rating scale 0-100
Procedure, shortened: as §2

[25] = system: barnyardgrass (Echinochloa crusgalli, ECHCG); experiment: as above; conditions: 14 days after application, rating scale 0-100
Procedure, shortened: as §2

[26] = system: ivyleaf morningglory (Ipomoea hederacea, IPOHE); experiment: as above; conditions: 14 days after application, rating scale 0-100
Procedure, shortened: as §2

O=c1n(-c2cc(Oc3ncccc3[N+](=O)[O-])c(Cl)cc2F)c(=S)n2n1CCCC2 [Compound 8-19]
crop damage rating CORN ([1]; rate 63 g ai/ha): 30 | crop damage rating CORN ([1]; rate 500 g ai/ha): 30 | crop damage rating RICE ([2]; rate 63 g ai/ha): 40 | crop damage rating RICE ([2]; rate 500 g ai/ha): 60 | phytotoxicity rating AMBEL ([3]; rate 63 g ai/ha): 90 | phytotoxicity rating AMBEL ([3]; rate 500 g ai/ha): 90 | phytotoxicity rating CASOB ([4]; rate 63 g ai/ha): 70 | phytotoxicity rating CASOB ([4]; rate 500 g ai/ha): 90 | phytotoxicity rating DIGSA ([5]; rate 63 g ai/ha): 30 | phytotoxicity rating DIGSA ([5]; rate 500 g ai/ha): 30 | phytotoxicity rating AMARE ([6]; rate 63 g ai/ha): 100 | phytotoxicity rating AMARE ([6]; rate 500 g ai/ha): 100 | phytotoxicity rating CHEAL ([7]; rate 63 g ai/ha): 100 | phytotoxicity rating CHEAL ([7]; rate 500 g ai/ha): 100 | phytotoxicity rating SORHA ([8]; rate 63 g ai/ha): 50 | phytotoxicity rating SORHA ([8]; rate 500 g ai/ha): 50 | phytotoxicity rating SETVI ([9]; rate 63 g ai/ha): 60 | phytotoxicity rating SETVI ([9]; rate 500 g ai/ha): 90 | phytotoxicity rating ABUTH ([10]; rate 63 g ai/ha): 100 | phytotoxicity rating ABUTH ([10]; rate 500 g ai/ha): 100 | phytotoxicity rating ECHCG ([11]; rate 63 g ai/ha): 50 | phytotoxicity rating ECHCG ([11]; rate 500 g ai/ha): 50 | phytotoxicity rating IPOHE ([12]; rate 63 g ai/ha): 100 | phytotoxicity rating IPOHE ([12]; rate 500 g ai/ha): 100 | crop damage rating SOY ([13]; rate 63 g ai/ha): 65 | crop damage rating SOY ([13]; rate 500 g ai/ha): 50 | SOY crop damage rating ([14]; Rate 125 g al/ha): 20 | SOY crop damage rating ([14]; Rate 500 g al/ha): 0 | CORN crop damage rating ([15]; Rate 125 g al/ha): 15 | CORN crop damage rating ([15]; Rate 500 g al/ha): 30 | RICE crop damage rating ([16]; Rate 125 g al/ha): 50 | RICE crop damage rating ([16]; Rate 500 g al/ha): 80 | CASOB phytotoxicity rating ([17]; Rate 125 g al/ha): 20 | CASOB phytotoxicity rating ([17]; Rate 500 g al/ha): 100 | DIGSA phytotoxicity rating ([18]; Rate 125 g al/ha): 30 | DIGSA phytotoxicity rating ([18]; Rate 500 g al/ha): 100 | AMARE phytotoxicity rating ([19]; Rate 125 g al/ha): 100 | AMARE phytotoxicity rating ([19]; Rate 500 g al/ha): 100 | CHEAL phytotoxicity rating ([20]; Rate 125 g al/ha): 100 | CHEAL phytotoxicity rating ([20]; Rate 500 g al/ha): 100 | SORHA phytotoxicity rating ([21]; Rate 125 g al/ha): 80 | SORHA phytotoxicity rating ([21]; Rate 500 g al/ha): 95 | AMBEL phytotoxicity rating ([22]; Rate 125 g al/ha): 50 | AMBEL phytotoxicity rating ([22]; Rate 500 g al/ha): 100 | SETVI phytotoxicity rating ([23]; Rate 125 g al/ha): 100 | SETVI phytotoxicity rating ([23]; Rate 500 g al/ha): 100 | ABUTH phytotoxicity rating ([24]; Rate 125 g al/ha): 100 | ABUTH phytotoxicity rating ([24]; Rate 500 g al/ha): 100 | ECHCG phytotoxicity rating ([25]; Rate 125 g al/ha): 50 | ECHCG phytotoxicity rating ([25]; Rate 500 g al/ha): 95 | IPOHE phytotoxicity rating ([26]; Rate 125 g al/ha): 40 | IPOHE phytotoxicity rating ([26]; Rate 500 g al/ha): 90

CS(=O)(=O)c1cccnc1Oc1cc(-n2c(=O)n3n(c2=S)CCCC3)c(F)cc1Cl [Compound 8-21]
crop damage rating CORN ([1]; rate 63 g ai/ha): 10 | crop damage rating CORN ([1]; rate 500 g ai/ha): 0 | crop damage rating RICE ([2]; rate 63 g ai/ha): 50 | crop damage rating RICE ([2]; rate 500 g ai/ha): 60 | phytotoxicity rating AMBEL ([3]; rate 63 g ai/ha): 60 | phytotoxicity rating AMBEL ([3]; rate 500 g ai/ha): 90 | phytotoxicity rating DIGSA ([5]; rate 63 g ai/ha): 0 | phytotoxicity rating DIGSA ([5]; rate 500 g ai/ha): 60 | phytotoxicity rating AMARE ([6]; rate 63 g ai/ha): 100 | phytotoxicity rating AMARE ([6]; rate 500 g ai/ha): 100 | phytotoxicity rating CHEAL ([7]; rate 63 g ai/ha): 99 | phytotoxicity rating CHEAL ([7]; rate 500 g ai/ha): 100 | phytotoxicity rating SORHA ([8]; rate 63 g ai/ha): 10 | phytotoxicity rating SORHA ([8]; rate 500 g ai/ha): 70 | phytotoxicity rating SETVI ([9]; rate 63 g ai/ha): 0 | phytotoxicity rating SETVI ([9]; rate 500 g ai/ha): 40 | phytotoxicity rating ABUTH ([10]; rate 63 g ai/ha): 100 | phytotoxicity rating ABUTH ([10]; rate 500 g ai/ha): 100 | phytotoxicity rating ECHCG ([11]; rate 63 g ai/ha): 0 | phytotoxicity rating ECHCG ([11]; rate 500 g ai/ha): 70 | phytotoxicity rating IPOHE ([12]; rate 63 g ai/ha): 90 | phytotoxicity rating IPOHE ([12]; rate 500 g ai/ha): 100 | crop damage rating SOY ([13]; rate 63 g ai/ha): 90 | crop damage rating SOY ([13]; rate 500 g ai/ha): 100 | SOY crop damage rating ([14]; Rate 125 g al/ha): 0 | SOY crop damage rating ([14]; Rate 500 g al/ha): 80 | CORN crop damage rating ([15]; Rate 125 g al/ha): 0 | CORN crop damage rating ([15]; Rate 500 g al/ha): 10 | RICE crop damage rating ([16]; Rate 125 g al/ha): 40 | RICE crop damage rating ([16]; Rate 500 g al/ha): 95 | CASOB phytotoxicity rating ([17]; Rate 125 g al/ha): 70 | CASOB phytotoxicity rating ([17]; Rate 500 g al/ha): 100 | DIGSA phytotoxicity rating ([18]; Rate 125 g al/ha): 70 | DIGSA phytotoxicity rating ([18]; Rate 500 g al/ha): 100 | AMARE phytotoxicity rating ([19]; Rate 125 g al/ha): 100 | AMARE phytotoxicity rating ([19]; Rate 500 g al/ha): 100 | CHEAL phytotoxicity rating ([20]; Rate 125 g al/ha): 100 | CHEAL phytotoxicity rating ([20]; Rate 500 g al/ha): 100 | SORHA phytotoxicity rating ([21]; Rate 125 g al/ha): 50 | SORHA phytotoxicity rating ([21]; Rate 500 g al/ha): 100 | AMBEL phytotoxicity rating ([22]; Rate 125 g al/ha): 70 | AMBEL phytotoxicity rating ([22]; Rate 500 g al/ha): 90 | SETVI phytotoxicity rating ([23]; Rate 125 g al/ha): 99 | SETVI phytotoxicity rating ([23]; Rate 500 g al/ha): 100 | ABUTH phytotoxicity rating ([24]; Rate 125 g al/ha): 100 | ABUTH phytotoxicity rating ([24]; Rate 500 g al/ha): 100 | ECHCG phytotoxicity rating ([25]; Rate 125 g al/ha): 40 | ECHCG phytotoxicity rating ([25]; Rate 500 g al/ha): 90 | IPOHE phytotoxicity rating ([26]; Rate 125 g al/ha): 90 | IPOHE phytotoxicity rating ([26]; Rate 500 g al/ha): 100
